Data taken from paper PMC11062899, “De novo development of small cyclic peptides that are orally bioavailable” (Nature Chemical Biology, 2023).
Where “and” joins values, the source holds several entries; their conditions need not be identical. Equal values may be shown once. Read-outs that look alike come from different tables or passages of the source.

Legend:
[1] = target: T1, rat α-thrombin (Rattus norvegicus, UniProt P18292); experiment: Protease inhibition, Ki for rat α-thrombin (fluorogenic substrate Z-Gly-Gly-Arg-AMC); assay type: biochemical; conditions: for Rat alpha thrombin inhibition, slope normalized to DMSO: replicates R1-R3
T1 construct: rat α-thrombin (Molecular Innovations) were used at final concentrations of 2 nM and 3 nM; purchased Molecular Innovations
Protocol: (§1) The inhibition constants (Ki) of cyclic peptides were calculated by measuring thrombin inhibition in the presence of different concentrations of the cyclic peptides. […] Human α-thrombin (Molecular Innovations) and rat α-thrombin (Molecular Innovations) were used at final concentrations of 2 nM and 3 nM, respectively, and fluorogenic substrate (Z-Gly-Gly-Arg-AMC, Bachem) was used at a concentration of 50 μM. Enzymatic activity was determined by measuring fluorescent gain on a Tecan Infinite M200 Pro microplate reader (excitation: 360 nm, emission: 465 nm) or a PHERAstar FSX microplate reader (excitation: 380 nm, emission: 440 nm) for 30 min at 25 °C with a fluorescent readout every 3 min. The two instruments were controlled with Tecan Infinite M200 Pro instrument software (iControl, version 1.12) and PHERAstar FSX software (version 5.70, edition 8), respectively. Protease inhibition was calculated by comparing the enzymatic activity to a control without cyclic peptide.
(§2) Half maximal inhibitory concentration (IC50) values were determined using a four-parameter logistic regression model in GraphPad Prism 9 to fit sigmoidal curves to the acquired data points according to equation (2) below.2 y=b+a−b/1+10^(logIC50−x)p where a and b represent the measured inhibition maximum and minimum, respectively; x is the logarithm of peptide concentration; y is the thrombin activity compared to a control without the cyclic peptide; and p is the Hill coefficient.
(§3) Ki values were calculated using the IC50 and the Cheng–Prusoff equation (equation (3)).3 Ki=IC50/1+S0/Km where Km is the Michaelis–Menten constant of the enzyme for the substrate used in the assay, and [S]0 is the initial substrate concentration.

[2] = target: human α-thrombin (Homo sapiens, UniProt P00734); experiment: Protease inhibition, Ki for human α-thrombin (fluorogenic substrate Z-Gly-Gly-Arg-AMC); assay type: biochemical; conditions: for Human alpha thrombin inhibition, slope normalized to DMSO: replicates R1-R3
Protocol: as §1, §2, §3

[3] = Passive artificial membrane permeability (PAMPA);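 as to Permeability% Average: top well sample relative to theoretical equilibrium sample by TIC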
[4] = peptide concentration 1.00E+02 uM
[5] = peptide concentration 1.19E-05 uM
[6] = peptide concentration 1.22E-02 uM
[7] = peptide concentration 1.25E+01 uM
[8] = peptide concentration 1.53E-03 uM
[9] = peptide concentration 1.56E+00 uM
[10] = peptide concentration 1.91E-04 uM
[11] = peptide concentration 1.95E-01 uM
[12] = peptide concentration 2.38E-05 uM
[13] = peptide concentration 2.44E-02 uM
[14] = peptide concentration 2.50E+01 uM
[15] = peptide concentration 3.05E-03 uM
[16] = peptide concentration 3.12E+00 uM
[17] = peptide concentration 3.81E-04 uM
[18] = peptide concentration 3.91E-01 uM
[19] = peptide concentration 4.77E-05 uM
[20] = peptide concentration 4.88E-02 uM
[21] = peptide concentration 5.00E+01 uM
[22] = peptide concentration 6.10E-03 uM
[23] = peptide concentration 6.25E+00 uM
[24] = peptide concentration 7.63E-04 uM
[25] = peptide concentration 7.81E-01 uM
[26] = peptide concentration 9.54E-05 uM
[27] = peptide concentration 9.77E-02 uM

O=C1C[C@H]2CCCN2C(=O)[C@H](Cc2ccccc2)NC(=O)[C@@H](NC(=O)c2ccc(Cl)s2)CC=CCCN1 [compound 38]
Ki ([1]; average of R1-R3, read-out: Rat alpha thrombin inhibition, Ki Average): 5.05 µM
Rat alpha thrombin inhibition, slope normalized to DMSO [1, 4]: 15.8 and 16.4 and 8.2
Rat alpha thrombin inhibition, slope normalized to DMSO [1, 5]: 106.1 and 100.1 and 101.4
Rat alpha thrombin inhibition, slope normalized to DMSO [1, 6]: 97.4 and 88.6 and 86.5
Rat alpha thrombin inhibition, slope normalized to DMSO [1, 7]: 49.8 and 47.2 and 35.5
Rat alpha thrombin inhibition, slope normalized to DMSO [1, 8]: 108.8 and 100.7 and 95.7
Rat alpha thrombin inhibition, slope normalized to DMSO [1, 9]: 89.9 and 88.6 and 50.7
Rat alpha thrombin inhibition, slope normalized to DMSO [1, 10]: 112.7 and 100.1 and 96.0
Rat alpha thrombin inhibition, slope normalized to DMSO [1, 11]: 101.4 and 102.2 and 81.9
Rat alpha thrombin inhibition, slope normalized to DMSO [1, 12]: 107.4 and 102.3 and 104.3
Rat alpha thrombin inhibition, slope normalized to DMSO [1, 13]: 116.5 and 84.1 and 102.5
Rat alpha thrombin inhibition, slope normalized to DMSO [1, 14]: 36.8 and 26.2 and 18.8
Rat alpha thrombin inhibition, slope normalized to DMSO [1, 15]: 100.6 and 93.4 and 89.7
Rat alpha thrombin inhibition, slope normalized to DMSO [1, 16]: 83.7 and 72.5 and 77.4
Rat alpha thrombin inhibition, slope normalized to DMSO [1, 17]: 105.1 and 100.1 and 102.4
Rat alpha thrombin inhibition, slope normalized to DMSO [1, 18]: 105.0 and 93.1 and 59.9
Rat alpha thrombin inhibition, slope normalized to DMSO [1, 19]: 108.7 and 101.6 and 109.2
Rat alpha thrombin inhibition, slope normalized to DMSO [1, 20]: 113.8 and 100.8 and 93.5
Rat alpha thrombin inhibition, slope normalized to DMSO [1, 21]: 30.2 and 11.5 and 16.5
Rat alpha thrombin inhibition, slope normalized to DMSO [1, 22]: 96.7 and 102.7 and 104.0
Rat alpha thrombin inhibition, slope normalized to DMSO [1, 23]: 71.7 and 61.7 and 68.8
Rat alpha thrombin inhibition, slope normalized to DMSO [1, 24]: 91.7 and 100.9 and 102.6
Rat alpha thrombin inhibition, slope normalized to DMSO [1, 25]: 88.3 and 82.4 and 91.2
Rat alpha thrombin inhibition, slope normalized to DMSO [1, 26]: 111.4 and 103.7 and 104.6
Rat alpha thrombin inhibition, slope normalized to DMSO [1, 27]: 106.1 and 99.6 and 107.1
IC50 ([1]; single replicates R1-R3, read-out: Rat alpha thrombin inhibition, IC50): 11.8 µM and 9.26 µM and 6.34 µM
Ki ([1]; single replicates R1-R3, read-out: Rat alpha thrombin inhibition, Ki): 6.5 µM and 5.12 µM and 3.51 µM
Ki ([2]; average of R1-R3, read-out: Human alpha thrombin inhibition, Ki Average): 13.5 µM
Human alpha thrombin inhibition, slope normalized to DMSO [2, 4]: 31.6 and 35.9 and 30.7
Human alpha thrombin inhibition, slope normalized to DMSO [2, 5]: 101.3 and 100.2 and 102.3
Human alpha thrombin inhibition, slope normalized to DMSO [2, 6]: 84.3 and 92.4 and 75.3
Human alpha thrombin inhibition, slope normalized to DMSO [2, 7]: 48.4 and 51.8 and 74.4
Human alpha thrombin inhibition, slope normalized to DMSO [2, 8]: 103.9 and 109.7 and 90.7
Human alpha thrombin inhibition, slope normalized to DMSO [2, 9]: 99.7 and 78.4 and 78.8
Human alpha thrombin inhibition, slope normalized to DMSO [2, 10]: 77.5 and 96.9 and 61.6
Human alpha thrombin inhibition, slope normalized to DMSO [2, 11]: 89.1 and 92.2 and 110.9
Human alpha thrombin inhibition, slope normalized to DMSO [2, 12]: 100.0 and 95.0 and 108.2
Human alpha thrombin inhibition, slope normalized to DMSO [2, 13]: 94.6 and 85.5 and 101.2
Human alpha thrombin inhibition, slope normalized to DMSO [2, 14]: 53.9 and 24.7 and 59.2
Human alpha thrombin inhibition, slope normalized to DMSO [2, 15]: 85.8 and 106.8 and 92.3
Human alpha thrombin inhibition, slope normalized to DMSO [2, 16]: 95.0 and 56.6 and 60.0
Human alpha thrombin inhibition, slope normalized to DMSO [2, 17]: 92.8 and 100.9 and 102.1
Human alpha thrombin inhibition, slope normalized to DMSO [2, 18]: 92.5 and 76.5 and 47.1
Human alpha thrombin inhibition, slope normalized to DMSO [2, 19]: 103.7 and 96.6 and 101.3
Human alpha thrombin inhibition, slope normalized to DMSO [2, 20]: 96.6 and 92.9 and 84.5
Human alpha thrombin inhibition, slope normalized to DMSO [2, 21]: 32.5 and 38.9 and 43.6
Human alpha thrombin inhibition, slope normalized to DMSO [2, 22]: 87.4 and 95.7 and 97.4
Human alpha thrombin inhibition, slope normalized to DMSO [2, 23]: 82.6 and 51.0 and 64.7
Human alpha thrombin inhibition, slope normalized to DMSO [2, 24]: 95.6 and 106.3 and 100.0
Human alpha thrombin inhibition, slope normalized to DMSO [2, 25]: 102.1 and 69.9 and 79.9
Human alpha thrombin inhibition, slope normalized to DMSO [2, 26]: 104.1 and 95.0 and 102.4
Human alpha thrombin inhibition, slope normalized to DMSO [2, 27]: 95.1 and 96.0 and 81.6
PAMPA permeability: % permeability ([3]; 50 μM, 12–18 h, acceptor concentration relative to equilibrium): 32 ± 6%
Permeability% (single replicates R1–R3) ([3]; 50 μM, 13 h (Fig. 5d)): 25.39% and 36.84% and 33.06%
Permeability% Average ([3]; 50 μM, 13 h (Fig. 5d)): 31.8%
Papp at 50 μM ([3]; PAMPA, pH 7.4): 3.47 ×10⁻⁶ cm/s
